Results reported in PubChem BioAssay (NCI).
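Briefly, cells in 96-well plates were exposed to five compound concentrations for 48 h, and endpoints were estimated by linear interpolation. TGI denotes the concentration required for complete inhibition of growth.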

Experiments:
Assay in all cases: inhibition of tumour cell growth, NCI panel, 48 h
K-562 leukemia = test system: K-562 leukemia
SF-295 CNS = test system: SF-295 CNS
CCRF-CEM leukemia = test system: CCRF-CEM leukemia
SR leukemia = test system: SR leukemia
IGROV1 ovarian = test system: IGROV1 ovarian
UACC-257 melanoma = test system: UACC-257 melanoma
MCF7 breast = test system: MCF7 breast
NCI-H460 lung = test system: NCI-H460 lung
ACHN renal = test system: ACHN renal
SK-MEL-28 melanoma = test system: SK-MEL-28 melanoma

Row | Structure (SMILES) | TGI (K-562 leukemia) [µM] | TGI (SF-295 CNS) [µM] | TGI (CCRF-CEM leukemia) [µM] | TGI (SR leukemia) [µM] | TGI (IGROV1 ovarian) [µM] | TGI (UACC-257 melanoma) [µM] | TGI (MCF7 breast) [µM] | TGI (NCI-H460 lung) [µM] | TGI (ACHN renal) [µM] | TGI (SK-MEL-28 melanoma) [µM]
1 | c1ncn(C23C4C5C6C4C2C6C53)n1 (stereo not given) | > 100 | > 100 | > 100 | > 100 | > 100 | > 100 | > 100 | > 100 | > 100 | > 100
2 | S=C1c2ccc(Cl)cc2-n2cnnc2C2CSCN12 (stereo not given) | 27.7 | > 100 | > 100 | > 100 | > 100 | > 100 | > 100 | > 100 | > 100 | > 100
3 | O=C1c2cccc([N+](=O)[O-])c2C(=O)N1Cc1ccccc1 | > 100 | > 100 | > 100 | > 100 | > 100 | > 100 | > 100 | > 100 | > 100 | > 100
4 | COc1cc2c(c(O)c1O)C(=O)C1CCC(=O)N1C2c1cccc2ccccc12 (stereo not given) | > 50 | > 50 | > 50 | > 50 | > 50 | > 50 | > 50 | > 50 | > 50 | > 50
5 | CC(=O)O[C@H]1CC(C)(C)C(=C=C/C(C)=C/C=C/C=C/C=C(C)/C=C2C=C(/C=C/[C@@]34O[C@]3(C)C[C@@H](O)CC4(C)C)C(=O)O/2)[C@](C)(O)C1 | 57.2 | 34.3 | 10 | 74.8 | 7.72 | 51.5 | 20.7 | > 100 | 48.7 | > 100
6 | Fc1ccc(C(OCCN2CCN(CCCc3ccccc3)CC2)c2ccc(F)cc2)cc1 | 16.1 | 15.2 | > 100 | 10 | 22.2 | 8.62 | 18.9 | 15.3 | 17.4 | 23.6
7 | CC(N=NNc1ccc(-c2nc3ccccc3[nH]2)cc1)C(=O)O (stereo not given) | > 100 | 72.1 | > 100 | > 100 | > 100 | > 100 | 34.1 | 79 | > 100 | > 100
